Consider 5 compounds from ChEMBL document CHEMBL5303304, “EUbOPEN Chemogenomics Library - IncuCyte” (2023).

What all share (format): toxicity, cell-based
Series [1] relates to HEK-293T. The series is described as follows: Incucyte cell viability with HEK293T. The following applies: human, 10 µM, compound concentration 10 uM.
Series [2] concerns Fibroblast. The series is described as follows: Incucyte cell viability with human fibroblast. The following applies: 10 µM, compound concentration 10 uM.
Series [3] concerns U2OS. The series is described as follows: Incucyte cell viability with U2OS. The following applies: human, 10 µM, compound concentration 10 uM.
Also: unitless GR value; below 1 slowed growth and below 0 cell loss.

`COc1nc2ccc([C@@](O)(c3ccccc3)C3CCN(C(C)=O)CC3)cc2c(Cl)c1Cc1ccc(-n2cccn2)cc1` [JNJ-54119936]: the “Growth Rate” value is -0.96 in series [1] (0 h, replicate number 1); -1 in series [1] (0 h, replicate number 2); 0.65 in series [1] (12 h, replicate number 1); 0.37 in series [1] (18 h, replicate number 1); 0.25 in series [1] (24 h, replicate number 1); -1 in series [2] (0 h, replicate number 1). Besides, the “Growth Rate” value in series [2] (18 h, replicate number 2) is given as 0.98; in series [3] (0 h, replicate number 1), -1; in series [3] (0 h, replicate number 2), 0.93; in series [3] (6 h, replicate number 2) it was 0.45; in series [3] (12 h, replicate number 1), 0.93; in series [3] (12 h, replicate number 2), 0.72. For the same compound, the “Growth Rate” value in series [3] (18 h, replicate number 1) worked out at 0.84; in series [3] (18 h, replicate number 2), 0.7; in series [3] (24 h, replicate number 1), 0.94; in series [3] (24 h, replicate number 2), 0.64.
Regarding `Cc1ccc(C(=O)Nc2cc(N3CCN(C)CC3)cc(C(F)(F)F)c2)cc1-n1cc(-c2cnn(C)c2C)nn1.Cl`, the “Growth Rate” value in series [1] (0 h, replicate number 1) is -0.85; in series [2] (0 h, replicate number 2), 0.61; in series [2] (6 h, replicate number 1) it was 0.66; in series [2] (6 h, replicate number 2), -0.05; in series [2] (12 h, replicate number 1) it was 0.43; in series [2] (12 h, replicate number 2) it was 0.19. In addition, the “Growth Rate” value in series [2] (18 h, replicate number 1) was 0.22; in series [2] (18 h, replicate number 2), 0.15; in series [2] (24 h, replicate number 1), 0.44; in series [2] (24 h, replicate number 2) it was 0.18; in series [3] (0 h, replicate number 1), 0.94; in series [3] (6 h, replicate number 1), 0.35. Moreover, the “Growth Rate” value in series [3] (6 h, replicate number 2) was determined as 0.77; in series [3] (12 h, replicate number 1), 0.71; in series [3] (12 h, replicate number 2), 0.58; in series [3] (18 h, replicate number 1), 0.92; in series [3] (18 h, replicate number 2), 0.73; in series [3] (24 h, replicate number 1) it was 0.82. Besides, in series [3] (24 h, replicate number 2), the “Growth Rate” value is reported as 0.66.
`CNC(=O)c1cc(C(=O)NC2CC2)cn(Cc2ccccc2)c1=O` [GSK620]: the “Growth Rate” value in series [1] (0 h, replicate number 1) is -0.72; in series [1] (0 h, replicate number 2) it was 0.91; in series [1] (6 h, replicate number 2), 0.74; in series [1] (12 h, replicate number 2), 0.76; in series [1] (18 h, replicate number 2) it was 0.99; in series [1] (24 h, replicate number 1), 0.93. Besides, the “Growth Rate” value in series [1] (24 h, replicate number 2) is 0.8; in series [2] (0 h, replicate number 1), 0.38; in series [2] (6 h, replicate number 2), 0.25; in series [3] (0 h, replicate number 1) it was -0.46; in series [3] (6 h, replicate number 1), 0.54; in series [3] (6 h, replicate number 2) it was 0.92. In addition, the “Growth Rate” value in series [3] (12 h, replicate number 1) worked out at 0.69; in series [3] (18 h, replicate number 1), 0.66; in series [3] (24 h, replicate number 1), 0.88.
Take `COc1cc2ncnc(Nc3ccc(Oc4ccccc4)cc3C)c2cc1OC.Cl`: the “Growth Rate” value in series [1] (0 h, replicate number 1) is recorded as -0.14; in series [1] (0 h, replicate number 2), -0.45; in series [2] (0 h, replicate number 1), -0.71; in series [2] (0 h, replicate number 2), -0.78; in series [2] (6 h, replicate number 1) it was 0.3; in series [2] (12 h, replicate number 1) it was -1. The “Growth Rate” value in series [3] (0 h, replicate number 1) is recorded as 0.5; in series [3] (0 h, replicate number 2), -0.92; in series [3] (6 h, replicate number 2) it was 0.35; in series [3] (12 h, replicate number 2), 0.74.
`Cc1cc(-c2cc3ncccc3c(OC[C@H]3CCCNC3)n2)ccc1N(C)C.O=C(O)C(F)(F)F`: the “Growth Rate” value is recorded as -1 in series [1] (0 h, replicate number 2); -0.57 in series [1] (6 h, replicate number 1); -0.53 in series [1] (6 h, replicate number 2); -0.47 in series [1] (12 h, replicate number 1); -0.44 in series [1] (12 h, replicate number 2); -0.34 in series [1] (18 h, replicate number 1). The “Growth Rate” value in series [1] (18 h, replicate number 2) was -0.28; in series [1] (24 h, replicate number 1) it was -0.25; in series [1] (24 h, replicate number 2), -0.18; in series [2] (0 h, replicate number 1), -0.49; in series [2] (0 h, replicate number 2) it was -0.85; in series [2] (24 h, replicate number 1), 0.79. In addition, the “Growth Rate” value turned out to be 0.85 in series [2] (24 h, replicate number 2); 0.47 in series [3] (6 h, replicate number 2); 0.77 in series [3] (12 h, replicate number 1); 0.26 in series [3] (12 h, replicate number 2); 0.28 in series [3] (18 h, replicate number 1); 0.19 in series [3] (18 h, replicate number 2). Besides, the “Growth Rate” value was found to be 0.47 in series [3] (24 h, replicate number 1) and 0.16 in series [3] (24 h, replicate number 2).
